Data from patent publication US12600725B2 (Memorial Sloan-Kettering Cancer Center, priority 2013, dated 2026).

Tests used:
Hsp90α = Hsp90α (Homo sapiens, UniProt P07900); experiment: biochemical; settings: FP competition, 6 nM Cy3B-GM, 10 nM protein, 4° C. for 24 h
Grp94 = Grp94 (Canis lupus familiaris, UniProt P41148); settings: read-out: Grp94; FP competition, 6 nM Cy3B-GM, 10 nM protein, 4° C. for 24 h
Hsp90β = Hsp90β (Homo sapiens, UniProt P08238)
Sequence of Hsp90β (P08238 whole entry): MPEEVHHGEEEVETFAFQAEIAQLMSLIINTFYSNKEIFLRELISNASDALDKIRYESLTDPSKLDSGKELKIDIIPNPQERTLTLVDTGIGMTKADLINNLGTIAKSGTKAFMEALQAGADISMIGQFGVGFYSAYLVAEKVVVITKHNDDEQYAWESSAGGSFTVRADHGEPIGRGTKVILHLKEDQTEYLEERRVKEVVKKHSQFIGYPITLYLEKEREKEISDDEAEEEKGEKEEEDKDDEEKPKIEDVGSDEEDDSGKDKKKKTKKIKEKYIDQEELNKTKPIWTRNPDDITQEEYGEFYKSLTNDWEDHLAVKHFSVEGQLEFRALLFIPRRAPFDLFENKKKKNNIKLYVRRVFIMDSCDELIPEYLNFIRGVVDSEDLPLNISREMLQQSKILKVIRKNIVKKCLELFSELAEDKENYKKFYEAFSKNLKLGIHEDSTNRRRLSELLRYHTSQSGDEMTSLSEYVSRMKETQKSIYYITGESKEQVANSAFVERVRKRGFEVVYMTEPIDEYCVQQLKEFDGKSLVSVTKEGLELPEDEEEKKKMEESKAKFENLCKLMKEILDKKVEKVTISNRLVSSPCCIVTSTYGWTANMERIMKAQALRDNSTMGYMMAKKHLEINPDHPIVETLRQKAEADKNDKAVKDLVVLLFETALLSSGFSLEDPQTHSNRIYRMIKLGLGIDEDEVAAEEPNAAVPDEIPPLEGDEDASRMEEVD

Sequence of Grp94 (P41148 with tags, fused parts or gaps DELINS287-327GGGG): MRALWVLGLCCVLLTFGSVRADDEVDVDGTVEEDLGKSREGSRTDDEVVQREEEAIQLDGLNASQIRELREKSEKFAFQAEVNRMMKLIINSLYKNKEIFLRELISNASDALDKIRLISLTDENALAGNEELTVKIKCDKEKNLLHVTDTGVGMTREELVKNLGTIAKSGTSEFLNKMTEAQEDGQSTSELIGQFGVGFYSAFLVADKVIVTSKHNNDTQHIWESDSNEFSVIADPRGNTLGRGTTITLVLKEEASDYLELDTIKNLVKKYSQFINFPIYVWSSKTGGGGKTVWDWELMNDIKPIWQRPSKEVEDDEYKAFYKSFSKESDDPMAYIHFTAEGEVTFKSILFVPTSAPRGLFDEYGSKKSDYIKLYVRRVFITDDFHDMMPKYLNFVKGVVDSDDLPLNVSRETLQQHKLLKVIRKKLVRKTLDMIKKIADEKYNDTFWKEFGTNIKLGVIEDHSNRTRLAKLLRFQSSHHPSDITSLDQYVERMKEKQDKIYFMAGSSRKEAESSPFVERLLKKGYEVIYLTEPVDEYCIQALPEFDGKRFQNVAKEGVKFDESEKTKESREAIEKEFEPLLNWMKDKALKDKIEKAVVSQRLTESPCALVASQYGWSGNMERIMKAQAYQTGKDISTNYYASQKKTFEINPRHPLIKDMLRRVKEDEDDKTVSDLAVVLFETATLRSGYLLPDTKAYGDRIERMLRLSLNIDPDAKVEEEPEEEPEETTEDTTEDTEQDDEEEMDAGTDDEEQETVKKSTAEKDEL

SMILES | IC50 (Hsp90α) | IC50 (Grp94) | IC50 (Hsp90β)
CC(C)NCCCn1c(Sc2cc(Cl)cc(C#CCO)c2)nc2c(N)ncnc21 [HJP-VI-58, 3-(3-((6-amino-9-(3-(isopropylamino)propyl)-9H-purin-8-yl)thio)-5-chlorophenyl)prop-2-yn-1-ol] | > 50 µM | 5.8 µM | 
CC(O)C#Cc1cc(Cl)cc(Sc2nc3c(N)ncnc3n2CCCNC(C)C)c1 (stereo not drawn) [HJP-VI-59, 4-(3-((6-amino-9-(3-(isopropylamino)propyl)-9H-purin-8-yl)thio)-5-chlorophenyl)but-3-yn-2-ol] | > 50 µM | 7.4 µM | 
CC(C)=Cc1cc(Cl)cc(Sc2nc3c(N)ncnc3n2CCCNC(C)C)c1 [HJP-VI-62, 8-((3-chloro-5-(2-methylprop-1-en-1-yl)phenyl)thio)-9-(3-(isopropylamino)propyl)-9H-purin-6-amine] | > 50 µM | 0.28 µM | 
CC(C)NCCCn1c(Sc2cc(Cl)cc(/C=C/C3CC3)c2)nc2c(N)ncnc21 [HJP-VI-64, (E)-8-((3-chloro-5-(2-cyclopropylvinyl)phenyl)thio)-9-(3-(isopropylamino)propyl)-9H-purin-6-amine] | > 50 µM | 0.24 µM | 
C#CCCCn1c(Sc2cc(Cl)nc(Cl)c2)nc2c(N)ncnc21 [HJP-VI-66, 8-((2,6-dichloropyridin-4-yl)thio)-9-(pent-4-yn-1-yl)-9H-purin-6-amine] | > 5 µM | 1.9 µM | 
CC(C)NCCCn1c(Sc2cc(Cl)cc(/C=C/C(C)(C)C)c2)nc2c(N)ncnc21 [HJP-VI-72, (E)-8-((3-chloro-5-(3,3-dimethylbut-1-en-1-yl)phenyl)thio)-9-(3-(isopropylamino)propyl)-9H-purin-6-amine] | 14.2 µM | 0.102 µM | 
CC(C)NCCCn1c(Sc2ccc(Cl)cc2Cl)nc2c(N)nccc21 [HJP-VI-101, 2-((2,4-dichlorophenyl)thio)-1-(3-(isopropylamino)propyl)-1H-imidazo[4,5-c]pyridin-4-amine] | 9.2 µM | > 5 µM | 
C#CCCn1cnc(N)c2nc(Sc3cc(Cl)cc(Cl)c3)nc1-2 [PDP-I-14-N3, 3-(But-3-yn-1-yl)-8-((3,5-dichlorophenyl)thio)-3H-purin-6-amine] | > 50 µM | > 5 µM | 
C#CCCCn1cnc(N)c2nc(Sc3cccc4ccccc34)nc1-2 [PDP-I-16-N3] | > 100 µM | > 5 µM | 
C#CCCCn1cnc(N)c2nc(Sc3ccc(Cl)c(Cl)c3)nc1-2 [PDP-I-25-N3] | > 50 µM | 11.1 µM | 
C#CCCCn1cnc(N)c2nc(Sc3ccc(-n4cccc4)cc3)nc1-2 [PDP-I-51-N3] | > 50 µM | > 5 µM | 
C#CCCCn1c(Sc2ccc(-n3cccc3)cc2)nc2c(N)ncnc21 [PDP-I-51-N9] | > 50 µM | > 10 µM | 
C#CCCCn1cnc(N)c2nc(Sc3ccc(Br)cc3CC)nc1-2 [PDP-I-54-N3] | > 50 µM | > 10 µM | 
C#CCCCn1c(Sc2cc(Br)cc3ccn(Cc4ccc(OC)cc4)c23)nc2c(N)ncnc21 [PDP-I-55-N9] | > 50 µM | > 5 µM | 
C#CCCCn1cnc(N)c2nc(Sc3cn(Cc4ccc(OC)cc4)c4ncc(Br)cc34)nc1-2 [PDP-I-58-N3] | > 50 µM | > 10 µM | 
C#CCCCn1c(Sc2cn(Cc3ccc(OC)cc3)c3ncc(Br)cc23)nc2c(N)ncnc21 [PDP-I-58-N9] | > 50 µM | > 10 µM | 
C#CCCCn1cnc(N)c2nc(Sc3ccc(Cl)c4ccccc34)nc1-2 [PDP-I-77-N3] | > 50 µM | > 5 µM | 
C#CCCCn1c(Sc2ccc(Cl)c3ccccc23)nc2c(N)ncnc21 [PDP-I-77-N9] | > 50 µM | > 2 µM | 
C#CCCCn1cnc(N)c2nc(Sc3cc(Cl)cc4c(Cl)ccnc34)nc1-2 [PDP-I-79-N3] | > 50 µM | > 5 µM | 
CCCCn1c(Cc2ccc(OC)cc2)nc2c(N)ncnc21 [PU1] | 110 ± 20 µM | 3.2 ± 0.4 µM | 92 ± 2 µM
C#CCCCn1c(Sc2ccc(OC)cc2)nc2c(N)ncnc21 [PU-H1] | > 100 µM | 1.13 ± 0.2 µM | > 100 µM
C#CCCCn1c(Sc2cc(Cl)ccc2C(F)(F)F)nc2c(N)ncnc21 [PU-H2] |  | 0.5 ± 0.2 µM | 6.5 ± 2.3 µM
C#CCCCn1c(Sc2ccccc2OC)nc2c(N)ncnc21 [PU-H5] |  | 6.2 ± 2.5 µM | 110 ± 120 µM
C#CCCCn1c(Sc2ccccc2Cl)nc2c(N)ncnc21 [PU-H6] | > 100 µM | 0.35 ± 0.05 µM | > 100 µM

SMILES | IC50 (Hsp90α) | IC50 (Grp94) | IC50 (Hsp90β)
C#CCCCn1c(Sc2ccc(Cl)cc2)nc2c(N)ncnc21 [PU-H7] | > 100 µM | 1.5 ± 0.2 µM | 
C#CCCCn1c(Sc2ccc(OC)cc2OC)nc2c(N)ncnc21 [PU-H8] | 47.4 ± 2.2 µM | 34.5 ± 3.5 µM | 22.4 ± 2.8 µM
C#CCCCn1c(Sc2ccccc2OC(F)(F)F)nc2c(N)ncnc21 [PU-H9] | > 100 µM | 1.4 ± 0.2 µM | > 100 µM
C#CCCCn1cnc(N)c2nc(Sc3cc(C)ccc3C)nc1-2 [PU-H29] | > 100 µM | 185 ± 15 µM | > 100 µM
C#CCCCn1c(Sc2ccccc2CO)nc2c(N)ncnc21 [PU-H34] | > 100 µM | 29 ± 9 µM | > 100 µM
C#CCCCn1cnc(N)c2nc(Sc3ccccc3CO)nc1-2 [PU-H35] | > 100 µM | > 100 µM | > 100 µM
C#CCCCn1c(Sc2c(C)cc(C)cc2C)nc2c(N)ncnc21 [PU-H36] | > 250 µM | 2.1 ± 0.56 µM | > 250 µM
C#CCCCn1cnc(N)c2nc(Sc3c(C)cc(C)cc3C)nc1-2 [PU-H37] | > 100 µM | 20 ± 5 µM | > 100 µM
C#CCCCn1cnc(N)c2nc(Sc3ccc(Cl)cc3Cl)nc1-2 [PU-H38] | > 500 µM | 2.37 ± 0.79 µM | > 500 µM
C#CCCCn1cnc(N)c2nc(Sc3cc(Cl)ccc3Cl)nc1-2 [PU-H43] | > 100 µM | 35.3 ± 5 µM | > 100 µM
C#CCCCn1cnc(N)c2nc(Sc3cc(C)cc(C)c3)nc1-2 [PU-H45] | > 100 µM | > 100 µM | > 100 µM
C#CCCCn1cnc(N)c2nc(Sc3ccccc3OC)nc1-2 [PU-H46] | > 100 µM | > 100 µM | > 100 µM
C#CCCCn1cnc(N)c2nc(Sc3ccccc3Cl)nc1-2 [PU-H47] | > 100 µM |  | > 100 µM
C#CCCCn1cnc(N)c2nc(Sc3ccccc3OC(F)(F)F)nc1-2 [PU-H48] | > 100 µM | 106 µM | > 100 µM
C#CCCCn1cnc(N)c2nc(Sc3cc(Cl)c(Cl)cc3Cl)nc1-2 [PU-H52] | > 100 µM | 2.08 ± 1.49 µM | > 100 µM
C#CCCCn1cnc(N)c2nc(Sc3cc(Cl)ccc3C(F)(F)F)nc1-2 [PU-H53] | > 100 µM | 200 µM | > 100 µM
C#CCCCn1cnc(N)c2nc(Sc3cc(Br)ccc3OC)nc1-2 [PU-H63] | 5.9 ± 0.5 µM | 2.3 ± 0.1 µM | 2.5 ± 0.2 µM
CN1CCN(CCn2c(Sc3cc(Cl)cc(Cl)c3)nc3c(N)ncnc32)CC1 [SO-III-39A, 8-((3,5-dichlorophenyl)thio)-9-(2-(4-methylpiperazin-1-yl)ethyl)-9H-purin-6-amine] | 52.2 µM | 0.373 µM | 
COC(C)CNCCn1c(Sc2cc(Cl)cc(Cl)c2)nc2c(N)ncnc21 (stereo not drawn) [SO-III-75A, 8-((3,5-dichlorophenyl)thio)-9-(2-((2-methoxypropyl)amino)ethyl)-9H-purin-6-amine] | 39.9 µM | 0.89 µM | 
Nc1ncnc2c1nc(Sc1cc(Cl)cc(Cl)c1)n2CCCn1ccnc1 [SO-III-103A, 9-(3-(1H-imidazol-1-yl)propyl)-8-((3,5-dichlorophenyl)thio)-9H-purin-6-amine] | > 10 µM | 0.203 µM | 
CC(C)NCCCn1c(Sc2cc(Cl)cc(Cl)c2)nc2c(N)nccc21 [SO-III-154, 2-((3,5-dichlorophenyl)thio)-1-(3-(isopropylamino)propyl)-1H-imidazo[4,5-c]pyridin-4-amine] | > 50 µM | 2.59 µM | 
CC(C)NCCCn1c(Sc2cccc3ccccc23)nc2c(N)nccc21 [SO-IV-03, 1-(3-(isopropylamino)propyl)-2-(naphthalen-1-ylthio)-1H-imidazo[4,5-c]pyridin-4-amine] | > 50 µM | > 5 µM | 
Cc1ccc(Sc2nc3c(N)ncn(CCCNC(C)C)c-3n2)c(C)c1 [WS-11, 8-((2,4-Dimethylphenyl)thio)-3-(3-(isopropylamino)propyl)-3H-purin-6-amine] | > 100 µM | 25 µM | 
CC(C)NCCCn1c(Sc2cc(C(F)(F)F)cc(C(F)(F)F)c2)nc2c(N)ncnc21 [WS-14, 8-((3,5-Bis(trifluoromethyl)phenyl)thio)-9-(3-(isopropylamino)propyl)-9H-purin-6-amine] | 8.56 µM | 2.43 µM | 
